System: MV-4-11 cells
Assay: Gene expression microarray analysis (Affymetrix PrimeView) and GSEA
Type: cell-based, human
Design: RFU PODN (11730768_x_at) / Fold change /veh PODN (11730768_x_at) / RFU LINC00158 (11744669_a_at) / Fold change /veh LINC00158 (11744669_a_at) / RFU DUSP10 (11751237_a_at) / Fold change /veh DUSP10 (11751237_a_at) / RFU ID3 (11757404_x_at) / Fold change /veh ID3 (11757404_x_at) / RFU PLEKHG5 (11737974_s_at) / Fold change /veh PLEKHG5 (11737974_s_at) / RFU LRRC4B (11730491_at) / Fold change /veh LRRC4B (11730491_at) / RFU GIMAP4 (11747438_a_at) / Fold change /veh GIMAP4 (11747438_a_at) / RFU KRT8 (11758183_x_at) / Fold change /veh KRT8 (11758183_x_at) / RFU CNN1 (11734310_a_at) / Fold change /veh CNN1 (11734310_a_at) / RFU VPS37D (11726825_at) / Fold change /veh VPS37D (11726825_at) / RFU C10orf10 (11716522_x_at) / Fold change /veh C10orf10 (11716522_x_at) / RFU KIR2DL2 /// KIR2DL4 /// KIR2DL5A /// KIR2DL5B /// KIR2DS1 /// KIR2DS2 /// KIR2DS3 /// KIR2DS4 /// KIR3DL3 /// KIR3DL3 /// KIR3DS1 (11738374_at) / Fold change /veh KIR2DL2 /// KIR2DL4 /// KIR2DL5A /// KIR2DL5B /// KIR2DS1 /// KIR2DS2 /// KIR2DS3 /// KIR2DS4 /// KIR3DL3 /// KIR3DL3 /// KIR3DS1 (11738374_at) / RFU C1QL1 (11718748_at) / Fold change /veh C1QL1 (11718748_at) / RFU TMPRSS4 (11747572_a_at) / Fold change /veh TMPRSS4 (11747572_a_at) / RFU HAMP (11756126_x_at) / Fold change /veh HAMP (11756126_x_at) / RFU RNFT2 (11725882_a_at) / Fold change /veh RNFT2 (11725882_a_at) / RFU NR4A2 (11747474_a_at) / Fold change /veh NR4A2 (11747474_a_at) / RFU ABCC12 (11746883_a_at) / Fold change /veh ABCC12 (11746883_a_at) / RFU TMEM136 (11760407_x_at) / Fold change /veh TMEM136 (11760407_x_at) / RFU CLDN22 /// WWC2 (11732394_at) / Fold change /veh CLDN22 /// WWC2 (11732394_at) / RFU HLA-DPB1 (11760878_x_at) / Fold change /veh HLA-DPB1 (11760878_x_at) / RFU SPINT1 (11716480_a_at) / Fold change /veh SPINT1 (11716480_a_at) / RFU GAP43 (11754022_s_at) / Fold change /veh GAP43 (11754022_s_at) / RFU A4GNT (11735810_at) / Fold change /veh A4GNT (11735810_at) / RFU PRB3 (11715151_x_at) / Fold change /veh PRB3 (11715151_x_at) / RFU TUBB4B (11761932_at) / Fold change /veh TUBB4B (11761932_at) / RFU CAPN14 (11732068_a_at) / Fold change /veh CAPN14 (11732068_a_at) / RFU TMCC2 (11721928_a_at) / Fold change /veh TMCC2 (11721928_a_at) / RFU IRGQ (11745062_a_at) / Fold change /veh IRGQ (11745062_a_at) / RFU FAM174B (11720279_a_at) / Fold change /veh FAM174B (11720279_a_at) / RFU TMPRSS4 (11748680_a_at) / Fold change /veh TMPRSS4 (11748680_a_at) / RFU FAM212B (11763350_a_at) / Fold change /veh FAM212B (11763350_a_at) / RFU PLEKHG5 (11743358_a_at) / Fold change /veh PLEKHG5 (11743358_a_at) / RFU ZSCAN30 (11745921_a_at) / Fold change /veh ZSCAN30 (11745921_a_at) / RFU CMKLR1 (11741424_a_at) / Fold change /veh CMKLR1 (11741424_a_at) / RFU LOC101060620 /// MAPK8IP1 (11723275_at) / Fold change /veh LOC101060620 /// MAPK8IP1 (11723275_at) / RFU SPTSSB (11747773_x_at) / Fold change /veh SPTSSB (11747773_x_at) / RFU PRSS12 (11739890_at) / Fold change /veh PRSS12 (11739890_at) / RFU BIN1 (11741810_x_at) / Fold change /veh BIN1 (11741810_x_at) / RFU WNT11 (11732464_a_at) / Fold change /veh WNT11 (11732464_a_at) / RFU C10orf10 (11716521_a_at) / Fold change /veh C10orf10 (11716521_a_at) / RFU C5orf56 (11738089_at) / Fold change /veh C5orf56 (11738089_at) / RFU CYB561 (11721691_x_at) / Fold change /veh CYB561 (11721691_x_at) / RFU ANKRD19P (11752326_a_at) / Fold change /veh ANKRD19P (11752326_a_at) / RFU OR2T12 /// OR2T33 /// OR2T8 (11738714_s_at) / Fold change /veh OR2T12 /// OR2T33 /// OR2T8 (11738714_s_at) / RFU VCAN (11748164_a_at) / Fold change /veh VCAN (11748164_a_at) / RFU JSRP1 (11732532_at) / Fold change /veh JSRP1 (11732532_at) / RFU KRTAP10-11 (11738290_x_at) / Fold change /veh KRTAP10-11 (11738290_x_at) / RFU MYO3A (11730013_a_at) / Fold change /veh MYO3A (11730013_a_at) / RFU EBF3 (11725865_a_at) / Fold change /veh EBF3 (11725865_a_at) / RFU CAMK2N1 (11719241_x_at) / Fold change /veh CAMK2N1 (11719241_x_at) / RFU C5orf56 (11738088_a_at) / Fold change /veh C5orf56 (11738088_a_at) / RFU OLFML3 (11715873_a_at) / Fold change /veh OLFML3 (11715873_a_at) / RFU LOC100653217 /// NTM (11731650_a_at) / Fold change /veh LOC100653217 /// NTM (11731650_a_at) / RFU MAPK11 (11762145_a_at) / Fold change /veh MAPK11 (11762145_a_at) / RFU FIZ1 (11724087_x_at) / Fold change /veh FIZ1 (11724087_x_at) / RFU OASL (11726364_x_at) / Fold change /veh OASL (11726364_x_at) / RFU SOX15 (11748057_x_at) / Fold change /veh SOX15 (11748057_x_at) / RFU CD79A (11719716_a_at) / Fold change /veh CD79A (11719716_a_at) / RFU HIST1H1D (11736915_at) / Fold change /veh HIST1H1D (11736915_at) / RFU CASKIN2 (11723855_a_at) / Fold change /veh CASKIN2 (11723855_a_at) / RFU LOC730098 (11760151_x_at) / Fold change /veh LOC730098 (11760151_x_at) / RFU OR4N2 (11742367_at) / Fold change /veh OR4N2 (11742367_at) / RFU PRRT2 (11749266_a_at) / Fold change /veh PRRT2 (11749266_a_at) / RFU SNX32 (11753110_a_at) / Fold change /veh SNX32 (11753110_a_at) / RFU CDHR5 (11726645_a_at) / Fold change /veh CDHR5 (11726645_a_at) / RFU RCAN1 (11760418_a_at) / Fold change /veh RCAN1 (11760418_a_at) / RFU FAM167A (11723789_a_at) / Fold change /veh FAM167A (11723789_a_at) / RFU FAM26E (11764081_at) / Fold change /veh FAM26E (11764081_at) / RFU ISYNA1 (11749810_s_at) / Fold change /veh ISYNA1 (11749810_s_at) / RFU ACY1 (11761880_at) / Fold change /veh ACY1 (11761880_at) / RFU 11764098_at / Fold change /veh 11764098_at / RFU SAMD14 (11745864_x_at) / Fold change /veh SAMD14 (11745864_x_at) / RFU NPB (11741838_a_at) / Fold change /veh NPB (11741838_a_at) / RFU TMPRSS6 (11731388_a_at) / Fold change /veh TMPRSS6 (11731388_a_at) / RFU KRTAP10-2 (11738614_at) / Fold change /veh KRTAP10-2 (11738614_at) / RFU ARHGAP8 /// PRR5-ARHGAP8 (11727945_x_at) / Fold change /veh ARHGAP8 /// PRR5-ARHGAP8 (11727945_x_at) / RFU KRTAP5-7 /// NADSYN1 (11734609_at) / Fold change /veh KRTAP5-7 /// NADSYN1 (11734609_at) / RFU RASL12 (11751679_a_at) / Fold change /veh RASL12 (11751679_a_at) / RFU CDKN2B (11736163_a_at) / Fold change /veh CDKN2B (11736163_a_at) / RFU PRF1 (11729649_at) / Fold change /veh PRF1 (11729649_at) / RFU, ZNF638 /// ZNF638-IT1 / Fold change vs veh, ZNF638 /// ZNF638-IT1 / RFU, PANK3 / Fold change vs veh, PANK3 / RFU, SH3YL1 / Fold change vs veh, SH3YL1 / RFU, ZEB2 / Fold change vs veh, ZEB2 / RFU, NRIP1 / Fold change vs veh, NRIP1 / RFU, PTTG1IP / Fold change vs veh, PTTG1IP / RFU, CAPN2 / Fold change vs veh, CAPN2 / RFU, MED14 / Fold change vs veh, MED14 / RFU, SNORA58 / Fold change vs veh, SNORA58 / RFU, C1orf63 / Fold change vs veh, C1orf63 / RFU, LRRFIP1 / Fold change vs veh, LRRFIP1 / RFU, NDUFAF7 / Fold change vs veh, NDUFAF7 / RFU, SLC12A2 / Fold change vs veh, SLC12A2 / RFU, IBTK / Fold change vs veh, IBTK / RFU, ESF1 / Fold change vs veh, ESF1 / Fold change vs veh, TMEM50B / RFU, TAOK1 / Fold change vs veh, TAOK1 / RFU, ACBD3 / Fold change vs veh, ACBD3 / RFU, TMA16 / Fold change vs veh, TMA16 / RFU, RWDD3 / Fold change vs veh, RWDD3 / RFU, BCAT1 / Fold change vs veh, BCAT1 / RFU, EDEM3 / Fold change vs veh, EDEM3 / RFU, TMEM33 / Fold change vs veh, TMEM33 / RFU, WDR75 / Fold change vs veh, WDR75 / RFU, AHCTF1 / Fold change vs veh, AHCTF1 / RFU, TFRC / Fold change vs veh, TFRC / RFU, ZDHHC17 / Fold change vs veh, ZDHHC17 / RFU, NOM1 / Fold change vs veh, NOM1 / RFU, ARL8B / Fold change vs veh, ARL8B / RFU, ZBTB11 / Fold change vs veh, ZBTB11 / RFU, TAMM41 / Fold change vs veh, TAMM41 / RFU, KIAA1704 /// LOC100996395 / Fold change vs veh, KIAA1704 /// LOC100996395 / RFU, ING1 / Fold change vs veh, ING1 / RFU, TRMT61B / Fold change vs veh, TRMT61B / RFU, FUBP3 / Fold change vs veh, FUBP3 / RFU, TP53 / Fold change vs veh, TP53 / RFU, TNKS2 / Fold change vs veh, TNKS2 / RFU, ZFP14 / Fold change vs veh, ZFP14 / RFU, ACTR2 / Fold change vs veh, ACTR2 / RFU, PPP3R1 / Fold change vs veh, PPP3R1 / RFU, PIK3R1 / Fold change vs veh, PIK3R1 / RFU, HNRNPA1 / Fold change vs veh, HNRNPA1 / RFU, RNF170 / Fold change vs veh, RNF170 / RFU, ZNF28 / Fold change vs veh, ZNF28 / RFU, RNGTT / Fold change vs veh, RNGTT / RFU, OGT / Fold change vs veh, OGT / RFU, BRD1 / Fold change vs veh, BRD1 / RFU, MARS / Fold change vs veh, MARS / RFU, ZNF655 / Fold change vs veh, ZNF655 / RFU, FAHD1 / Fold change vs veh, FAHD1 / RFU, BDP1 / Fold change vs veh, BDP1 / RFU, LRRCC1 / Fold change vs veh, LRRCC1 / RFU, ARID1A / Fold change vs veh, ARID1A / RFU, ZNF146 / Fold change vs veh, ZNF146 / RFU, ZNF330 / Fold change vs veh, ZNF330 / RFU, GPN3 / Fold change vs veh, GPN3 / RFU, C9orf123 / Fold change vs veh, C9orf123 / RFU, N4BP2L2 / Fold change vs veh, N4BP2L2 / RFU, ARFIP1 / Fold change vs veh, ARFIP1 / RFU, FAM179B / Fold change vs veh, FAM179B / RFU, BCL10 / Fold change vs veh, BCL10 / RFU, UHRF1BP1L / Fold change vs veh, UHRF1BP1L / RFU, BET1 / Fold change vs veh, BET1 / RFU, CNOT2 / Fold change vs veh, CNOT2 / RFU, ZNF268 / Fold change vs veh, ZNF268 / Fold change vs veh, ZNF507 / RFU, DGCR2 / Fold change vs veh, DGCR2 / RFU, WDSUB1 / Fold change vs veh, WDSUB1 / Fold change vs veh, HSP90B1 /// MIR3652 / RFU, ADSS / Fold change vs veh, ADSS / RFU, GK / Fold change vs veh, GK / RFU, ZNF148 / Fold change vs veh, ZNF148 / RFU, TAF9 / Fold change vs veh, TAF9 / RFU, SLC1A5 / Fold change vs veh, SLC1A5 / RFU, SLMO2 / Fold change vs veh, SLMO2 / RFU, ABCC4 / Fold change vs veh, ABCC4 / RFU, LOC101060439 /// RAP1B / Fold change vs veh, LOC101060439 /// RAP1B / RFU, RFX7 / Fold change vs veh, RFX7 / RFU, GTPBP10 / Fold change vs veh, GTPBP10 / RFU, CNEP1R1 / Fold change vs veh, CNEP1R1 / RFU, BIVM-ERCC5 /// ERCC5 / Fold change vs veh, BIVM-ERCC5 /// ERCC5 / RFU, ILF3 / Fold change vs veh, ILF3 / RFU 11762660_at / Fold change /veh 11762660_at / RFU VCAN (11757783_s_at) / Fold change /veh VCAN (11757783_s_at) / RFU DDX43 (11728927_at) / Fold change /veh DDX43 (11728927_at) / RFU KRT8 (11758188_x_at) / Fold change /veh KRT8 (11758188_x_at) / RFU NKD1 (11759106_at) / Fold change /veh NKD1 (11759106_at) / RFU SRD5A1 (11742802_a_at) / Fold change /veh SRD5A1 (11742802_a_at) / RFU TPSAB1 /// TPSB2 (11721975_s_at) / Fold change /veh TPSAB1 /// TPSB2 (11721975_s_at) / RFU GSTM3 (11746129_a_at) / Fold change /veh GSTM3 (11746129_a_at) / RFU IL23R (11737362_x_at) / Fold change /veh IL23R (11737362_x_at) / RFU TMEM51 (11727254_a_at) / Fold change /veh TMEM51 (11727254_a_at) / RFU PIWIL2 (11732686_x_at) / Fold change /veh PIWIL2 (11732686_x_at) / RFU ORM1 (11744905_x_at) / Fold change /veh ORM1 (11744905_x_at) / RFU CCDC152 (11743942_at) / Fold change /veh CCDC152 (11743942_at) / RFU ECM1 (11717891_a_at) / Fold change /veh ECM1 (11717891_a_at) / RFU IL23R (11748794_a_at) / Fold change /veh IL23R (11748794_a_at) / RFU TNFAIP8L3 (11732012_x_at) / Fold change /veh TNFAIP8L3 (11732012_x_at) / RFU MBOAT4 (11741988_at) / Fold change /veh MBOAT4 (11741988_at) / RFU 11764193_at / Fold change /veh 11764193_at / RFU TMEM53 (11763286_at) / Fold change /veh TMEM53 (11763286_at) / RFU MAGEB2 (11727129_at) / Fold change /veh MAGEB2 (11727129_at) / RFU TMEM200A (11744735_a_at) / Fold change /veh TMEM200A (11744735_a_at) / RFU CCDC152 (11751479_a_at) / Fold change /veh CCDC152 (11751479_a_at) / RFU FAM211A (11726209_a_at) / Fold change /veh FAM211A (11726209_a_at) / RFU RGS16 (11746705_a_at) / Fold change /veh RGS16 (11746705_a_at) / RFU VCAN (11755009_s_at) / Fold change /veh VCAN (11755009_s_at) / RFU RHOB (11743442_s_at) / Fold change /veh RHOB (11743442_s_at) / RFU RGS16 (11720943_a_at) / Fold change /veh RGS16 (11720943_a_at) / RFU RGS16 (11720944_at) / Fold change /veh RGS16 (11720944_at) / RFU, VPS4B / Fold change vs veh, VPS4B / RFU, CREB1 / Fold change vs veh, CREB1 / RFU, DNAJC13 / Fold change vs veh, DNAJC13 / RFU, GNAQ / Fold change vs veh, GNAQ / RFU, CDK5R1 / Fold change vs veh, CDK5R1 / RFU, ZRANB3 / Fold change vs veh, ZRANB3 / RFU, CUL4A / Fold change vs veh, CUL4A / RFU, CCNY / Fold change vs veh, CCNY / RFU, UFL1 / Fold change vs veh, UFL1 / RFU, COG3 / Fold change vs veh, COG3 / RFU, DIAPH2 / Fold change vs veh, DIAPH2 / RFU, SKA2 / Fold change vs veh, SKA2 / RFU, AFF3 / Fold change vs veh, AFF3 / RFU, LMF1 / Fold change vs veh, LMF1 / RFU, IPO11 / Fold change vs veh, IPO11 / RFU, DFFB / Fold change vs veh, DFFB / RFU, FOXP1 / Fold change vs veh, FOXP1 / RFU, CARD8 / Fold change vs veh, CARD8 / RFU, STRN3 / Fold change vs veh, STRN3 / RFU, ADK / Fold change vs veh, ADK / RFU, RASSF2 / Fold change vs veh, RASSF2 / RFU, WIPF1 / Fold change vs veh, WIPF1 / RFU, LARP1B / Fold change vs veh, LARP1B / RFU, RASA1 / Fold change vs veh, RASA1 / RFU, RB1 / Fold change vs veh, RB1 / RFU, PPFIA1 / Fold change vs veh, PPFIA1 / RFU, MAT2A / Fold change vs veh, MAT2A / RFU, CCT5 / Fold change vs veh, CCT5 / RFU, WDR92 / Fold change vs veh, WDR92 / RFU, CUX1 / Fold change vs veh, CUX1 / RFU, TTC7A / Fold change vs veh, TTC7A / RFU, TMEM135 / Fold change vs veh, TMEM135 / RFU, DEPTOR / Fold change vs veh, DEPTOR / RFU, CPM / Fold change vs veh, CPM / RFU, DNAJB6 / Fold change vs veh, DNAJB6 / RFU, CACNA2D3 / Fold change vs veh, CACNA2D3 / RFU, DTX4 / Fold change vs veh, DTX4 / RFU, TFCP2 / Fold change vs veh, TFCP2 / RFU, GMCL1 /// GMCL1P1 / Fold change vs veh, GMCL1 /// GMCL1P1 / RFU, AEBP2 / Fold change vs veh, AEBP2 / RFU, SNHG1 /// SNORD22 /// SNORD25 /// SNORD26 /// SNORD27 /// SNORD28 /// SNORD29 /// SNORD31 / Fold change vs veh, SNHG1 /// SNORD22 /// SNORD25 /// SNORD26 /// SNORD27 /// SNORD28 /// SNORD29 /// SNORD31 / Fold change (Aza/veh), C12orf56 (ProbeSet 11735607_a_at) / Fold change (ACY-1035/veh), C12orf56 (ProbeSet 11735607_a_at) / Fold change (Aza/veh), FGFR1OP (ProbeSet 11751329_s_at) / Fold change (ACY-1035/veh), FGFR1OP (ProbeSet 11751329_s_at) / Fold change (Aza/veh), VPS36 (ProbeSet 11739960_a_at) / Fold change (ACY-1035/veh), VPS36 (ProbeSet 11739960_a_at) / RFU SYPL1 (11715823_x_at) / Fold change /veh SYPL1 (11715823_x_at) / RFU IGFBP7 (11715501_s_at) / Fold change /veh IGFBP7 (11715501_s_at) / RFU REEP3 (11722064_at) / Fold change /veh REEP3 (11722064_at) / RFU IGLL1 (11728026_x_at) / Fold change /veh IGLL1 (11728026_x_at): dose or concentration left out as unconfirmed
Details: MV-4-11 cells, 48 hours

## Nc1ccc(-c2cccs2)cc1NC(=O)c1ccc2c(c1)cc(C1CC1)n2CCN1CCOCC1 [ACY-1035]
  Fold change /veh WNT11 (11732464_a_at): 1.11

Reference: PMC5218480 (PLoS ONE, 2017)
